The assay can be described thus: Denitrosation reaction time, iodo vs bromo salts. The settings on record: sodium iodide reagent. The text has this: Particularly for the sodium iodide salt, the reaction will occur within one minute, whereas, when bromo salts are substituted, the reaction times are considerably longer, such as five minutes.

Turning to `[I-].[Na+]` [sodium iodide], the reaction time result is given as “one”.

The values are drawn from patent US4256462A, “Method and composition for determination of n-nitrosamines” (University of Iowa Research Foundation, priority 1979, dated 1981).
